Measurements published in publication PMC11868595, “Safety, pharmacokinetics and efficacy of HA121-28 in patients with advanced solid tumors and RET fusion-positive non-small-cell lung cancer: a multicenter, open-label, single-arm phase 1/2 trial” (Signal Transduction and Targeted Therapy, 2025).

Tested on: patients with RET fusion-positive NSCLC
Assay: Phase 2 trial: adverse events (CTCAE)
Assay type: in vivo, human
Source text: The phase 2 trial was still ongoing. It was a single-arm, multicenter, open-label, nonrandomized study to assess the efficacy and safety of HA121-28 in RET-fusion-positive NSCLC.
Patients aged 18–75 years (inclusive) who had unresectable locally advanced or metastatic NSCLC through histologically or cytologically examination were enrolled. Patients were also required to have documented RET fusions centrally examined by next-generation sequencing in certified laboratories but without other oncogenic alterations. Had progression on at least one previous line of standard treatment but have no previous use of other anti-RET inhibitors. The complete lists of inclusion and exclusion criteria of phase 1 and phase 2 are provided in both protocols (in Supplement).
In phase 1 trial, during the dose-escalation part, patients first administered HA121-28 in a single ascending dose under the fasted state, then followed up for seven days. Then, patients received ascending doses of HA121-28 (q.d.) on a 21-day on and 7-day off treatment scheme for a 28-day cycle. For patients deemed beneficial from the treatment by investigators, treatment could remain until disease progression, or they discontinued from the study. In the dose-expansion part of phase 1, as well as phase 2, patients received HA121-28 (q.d.) at the selected doses on a 21-day on and 7-day off treatment scheme until disease progression, or they discontinued from the study.
Treatment-emergent adverse events (TEAEs) were documented during the entire study period. The predefined adverse event of special interest (AESI) was ≥ grade 3 prolonged QT interval. Tumor imaging was performed using contrast-enhanced computed tomography or magnetic resonance imaging at screening, Day 28 of the first cycle, then approximately every eight weeks till the end of the study for phase 1; in phase 2, imaging was scheduled at screening, and every eight weeks during the first 40 weeks, followed by every 12 weeks for the rest of the study period. RECIST 1.1 was used by the independent review committee or investigators for assessment of tumor response. After the original assessment, a repeated assessment was required around four weeks later to confirm a complete or partial response.
The primary endpoint of phase 2 was the independent review committee evaluated ORR using RECIST 1.1. The secondary endpoints included investigators assessed ORR; DCR, PFS, and DOR by the independent review committee and investigators; overall survival and TEAEs. Each TEAE was graded according to CTCAE version 5.0 and coded by MedDRA (version 24.0). The phase 2 trial is ongoing; not all endpoints are reported in this paper.

[1] = Phase 2 study, patient 3 with Grade 3 QTc prolongation
[2] = Phase 2 study, patient 4 with Grade 3 QTc prolongation
[3] = Phase 2 study, patient 5 with Grade 3 QTc prolongation
[4] = Phase 2 study, patient 7 with Grade 3 QTc prolongation
[5] = Phase 2 study, patient 8 with Grade 3 QTc prolongation

COc1cc2c(Nc3ccc(Br)cc3F)ncnc2cc1OCCCCN(C)C.Cl.Cl [HA121-28, N-(4-bromo-2-fluorophenyl)-7-(4-(dimethylamino)butoxy)-6-methoxy quinazolin-4-amine dihydrochloride]
Serious TEAE: Pneumonia (Phase 2, 450 mg (N=48)): 1 (2.1) No. (%) | Serious TEAE: Pneumonitis (Phase 2, 450 mg (N=48)): 1 (2.1) No. (%) | Serious TEAE: Prolonged QT interval (Phase 2, 450 mg (N=48)): 0 No. (%) | Serious TEAE: Pulmonary embolism (Phase 2, 450 mg (N=48)): 1 (2.1) No. (%) | Serious TEAE: Pyrexia (Phase 2, 450 mg (N=48)): 1 (2.1) No. (%) | Serious TEAE: Rash (Phase 2, 450 mg (N=48)): 2 (4.2) No. (%) | Serious TEAE: Rectal hemorrhage (Phase 2, 450 mg (N=48)): 0 No. (%) | Serious TEAE: Respiratory failure (Phase 2, 450 mg (N=48)): 1 (2.1) No. (%) | Serious TEAE: Seizure (Phase 2, 450 mg (N=48)): 0 No. (%) | Serious TEAE: Septic shock (Phase 2, 450 mg (N=48)): 1 (2.1) No. (%) | Serious TEAE: Sudden cardiac arrest (Phase 2, 450 mg (N=48)): 0 No. (%) | Serious TEAE: Sudden death (Phase 2, 450 mg (N=48)): 0 No. (%) | Serious TEAE: Upper respiratory tract infection (Phase 2, 450 mg (N=48)): 0 No. (%) | Serious TEAE: Ventricular tachycardia (Phase 2, 450 mg (N=48)): 0 No. (%) | Serious TEAE: Vomiting (Phase 2, 450 mg (N=48)): 0 No. (%) | Serious TEAE: Weight loss (Phase 2, 450 mg (N=48)): 0 No. (%) | Serious TRAE: ALT increased (Phase 2, 450 mg (N=48)): 1 (2.1) No. (%) | Serious TRAE: AST increased (Phase 2, 450 mg (N=48)): 1 (2.1) No. (%) | Serious TRAE: Abdominal Pain (Phase 2, 450 mg (N=48)): 1 (2.1) No. (%) | Serious TRAE: Abdominal distension (Phase 2, 450 mg (N=48)): 0 No. (%) | Serious TRAE: Acute cholecystitis (Phase 2, 450 mg (N=48)): 0 No. (%) | Serious TRAE: Acute pancreatitis (Phase 2, 450 mg (N=48)): 0 No. (%) | Serious TRAE: Anal abscess (Phase 2, 450 mg (N=48)): 0 No. (%) | Serious TRAE: Any (Phase 2, 450 mg (N=48)): 9 (18.8) No. (%) | Serious TRAE: Aortic intramural hematoma (Phase 2, 450 mg (N=48)): 0 No. (%) | Serious TRAE: Arrhythmia (Phase 2, 450 mg (N=48)): 0 No. (%) | Serious TRAE: Blood bilirubin increased (Phase 2, 450 mg (N=48)): 0 No. (%) | Serious TRAE: Blood creatinine increased (Phase 2, 450 mg (N=48)): 0 No. (%) | Serious TRAE: COVID-19 (Phase 2, 450 mg (N=48)): 0 No. (%) | Serious TRAE: Cardiac tamponade (Phase 2, 450 mg (N=48)): 0 No. (%) | Serious TRAE: Coronary artery atherosclerosis (Phase 2, 450 mg (N=48)): 0 No. (%) | Serious TRAE: Death (Phase 2, 450 mg (N=48)): 0 No. (%) | Serious TRAE: Dermatitis allergic (Phase 2, 450 mg (N=48)): 1 (2.1) No. (%) | Serious TRAE: Diarrhea (Phase 2, 450 mg (N=48)): 1 (2.1) No. (%) | Serious TRAE: Drug eruption (Phase 2, 450 mg (N=48)): 0 No. (%) | Serious TRAE: Dyspnea (Phase 2, 450 mg (N=48)): 0 No. (%) | Serious TRAE: Embolism (Phase 2, 450 mg (N=48)): 0 No. (%) | Serious TRAE: Erythema multiforme (Phase 2, 450 mg (N=48)): 1 (2.1) No. (%) | Serious TRAE: Headache (Phase 2, 450 mg (N=48)): 0 No. (%) | Serious TRAE: Hemoptysis (Phase 2, 450 mg (N=48)): 0 No. (%) | Serious TRAE: Hydronephrosis (Phase 2, 450 mg (N=48)): 0 No. (%) | Serious TRAE: Hypertension (Phase 2, 450 mg (N=48)): 2 (4.2) No. (%) | Serious TRAE: Hypoalbuminemia (Phase 2, 450 mg (N=48)): 0 No. (%) | Serious TRAE: Intestinal obstruction (Phase 2, 450 mg (N=48)): 0 No. (%) | Serious TRAE: Intra-abdominal fluid collection (Phase 2, 450 mg (N=48)): 0 No. (%) | Serious TRAE: Intracranial tumor hemorrhage (Phase 2, 450 mg (N=48)): 0 No. (%) | Serious TRAE: Liver injury (Phase 2, 450 mg (N=48)): 0 No. (%) | Serious TRAE: Lung adenocarcinoma (Phase 2, 450 mg (N=48)): 0 No. (%) | Serious TRAE: Malignant neoplasm progression (Phase 2, 450 mg (N=48)): 0 No. (%) | Serious TRAE: Multiple organ dysfunction syndrome (Phase 2, 450 mg (N=48)): 0 No. (%) | Serious TRAE: Nausea (Phase 2, 450 mg (N=48)): 0 No. (%) | Serious TRAE: Nephrolithiasis (Phase 2, 450 mg (N=48)): 0 No. (%) | Serious TRAE: Platelet counts decreased (Phase 2, 450 mg (N=48)): 0 No. (%) | Serious TRAE: Pleural effusion (Phase 2, 450 mg (N=48)): 0 No. (%) | Serious TRAE: Pneumonia (Phase 2, 450 mg (N=48)): 0 No. (%) | Serious TRAE: Pneumonitis (Phase 2, 450 mg (N=48)): 0 No. (%) | Serious TRAE: Prolonged QT interval (Phase 2, 450 mg (N=48)): 0 No. (%) | Serious TRAE: Pulmonary embolism (Phase 2, 450 mg (N=48)): 1 (2.1) No. (%) | Serious TRAE: Pyrexia (Phase 2, 450 mg (N=48)): 0 No. (%) | Serious TRAE: Rash (Phase 2, 450 mg (N=48)): 2 (4.2) No. (%) | Serious TRAE: Rectal hemorrhage (Phase 2, 450 mg (N=48)): 0 No. (%) | Serious TRAE: Respiratory failure (Phase 2, 450 mg (N=48)): 0 No. (%) | Serious TRAE: Seizure (Phase 2, 450 mg (N=48)): 0 No. (%) | Serious TRAE: Septic shock (Phase 2, 450 mg (N=48)): 0 No. (%) | Serious TRAE: Sudden cardiac arrest (Phase 2, 450 mg (N=48)): 0 No. (%) | Serious TRAE: Sudden death (Phase 2, 450 mg (N=48)): 0 No. (%) | Serious TRAE: Upper respiratory tract infection (Phase 2, 450 mg (N=48)): 0 No. (%) | Serious TRAE: Ventricular tachycardia (Phase 2, 450 mg (N=48)): 0 No. (%) | Serious TRAE: Vomiting (Phase 2, 450 mg (N=48)): 0 No. (%) | Serious TRAE: Weight loss (Phase 2, 450 mg (N=48)): 0 No. (%) | Grade of cardiac TEAE: sinus bradycardia (Phase 2 study, patient 1 with Grade 3 QTc prolongation): 1 | Grade of cardiac TEAE: cronary arteriosclerosis (Phase 2 study, patient 2 with Grade 3 QTc prolongation): 2 | Grade of cardiac TEAE: Supraventricular extrasystoles [1]: 1 | Grade of cardiac TEAE: arhythmia [1]: 1 | Grade of cardiac TEAE: sinus bradycardia [1]: 1 | Grade of cardiac TEAE: ventricular extrasystole [1]: 2 | Grade of cardiac TEAE: Ejection fraction reduced [2]: 2 | Grade of cardiac TEAE: Left ventricular dysfunction [2]: 2 | Grade of cardiac TEAE: Supraventricular extrasystoles [2]: 1 | Grade of cardiac TEAE: Ventricular wall movement diffusky diminshed [2]: 2 | Grade of cardiac TEAE: nodal tachycardia [2]: 1 | Grade of cardiac TEAE: T wave abnormal [3]: 1 | Grade of cardiac TEAE: nodal tachycardia [3]: 1 | Grade of cardiac TEAE: myocardial damage (Phase 2 study, patient 6 with Grade 3 QTc prolongation): 2 | Grade of cardiac TEAE: Supraventricular extrasystoles [4]: 2 | Grade of cardiac TEAE: T wave abnormal [4]: 2 | Grade of cardiac TEAE: U wave abnormal [4]: 2 | Grade of cardiac TEAE: T wave abnormal [5]: 1 | Grade of cardiac TEAE: nodal tachycardia [5]: 1 | Grade of cardiac TEAE: nodal tachycardia (Phase 2 study, patient 9 with Grade 3 QTc prolongation): 1 | grade ≥ 3 TEAE diarrhea (phase 2): 12.5% | grade ≥ 3 TEAE hypertension (phase 2): 18.8% | grade ≥ 3 TEAE prolonged QT interval (phase 2): 31.3% | patients with at least one SAE (phase 2): 39.6% | patients with at least one TRAE (phase 2): 95.8% | patients with grade ≥3 TRAEs (phase 2): 62.5% | patients with treatment-related SAE (phase 2): 18.8% | ≥ grade-3 prolonged QT interval with dose interruption (phase 2): 14.6% | ≥ grade-3 prolonged QT interval with dose reduction (phase 2): 6.3%
